Measurements: USRE40086E1, “Method for treating bacterial infection with novel 7-substituted-9-substituted amino 6-demethyl-6-deoxytetracyclines” (Wyeth Holdings Corporation, priority 1991, dated 2008)
Counter-ions that a name gives are not always drawn. Like-named read-outs stand apart in the source and are kept apart here.

Experiments:
Listeria monocytogenes = experiment: MIC vs recent clinical and agricultural isolates (Table V, KK); assay type: cell-based; details: [8] tested
E. coli UBMS 90-4 (tetM) = experiment: MIC, agar dilution; assay type: cell-based; details: Escherichia coli
Citrobacter freundii = experiment: MIC vs recent clinical and agricultural isolates (Table V, KK); assay type: cell-based; details: [10] tested
E. coli UBMS 88-1 (tetB) = experiment: MIC, agar dilution; assay type: cell-based; details: E. coli UBMS 88-1 (tetB)
[1] = test system: Staphylococcus aureus, methicillin-susceptible; experiment: MIC vs recent clinical and agricultural isolates (Table V, KK); assay type: cell-based; details: [15] tested
Shigella spp. = assay type: cell-based; details: [14] tested
[2] = test system: S. haemolyticus AVAH 88-3; experiment: MIC, agar dilution; assay type: cell-based
Morganella morganii = experiment: MIC vs recent clinical and agricultural isolates (Table V, KK); assay type: cell-based; details: [16] tested
[3] = test system: Bacertoides fragilis group; experiment: as above; assay type: cell-based; details: [10] tested
Moraxella catarrhalis = experiment: as above; assay type: cell-based; details: [18] tested
Streptococcus pyogenes = experiment: as above; assay type: cell-based; details: [10] tested
Neisseria gonorrhoeae = experiment: as above; assay type: cell-based; details: [14] tested
E. coli UBMS 89-1 (tetM) = experiment: MIC, agar dilution; assay type: cell-based; details: Escherichia coli
Pseudomonas aeruginosa = experiment: MIC vs recent clinical and agricultural isolates (Table V, KK); assay type: cell-based; details: [10] tested
Klebsiella oxytoca = experiment: as above; assay type: cell-based; details: [10] tested
Proteus vulgaris = experiment: as above; assay type: cell-based; details: [18] tested
Anaerobic Gram (+) Cocci = experiment: as above; assay type: cell-based; details: [15] tested
Streptococcus pneumoniae = experiment: as above; assay type: cell-based; details: [10] tested
[4] = test system: S. aureus UBMS 90-2 (tetM); experiment: MIC, agar dilution; assay type: cell-based; details: S. aureus UBMS 90-2 (tetM)
[5] = test system: Staphylococcus aureus, methicillin-resistant; experiment: MIC vs recent clinical and agricultural isolates (Table V, KK); assay type: cell-based; details: [15] tested
Serratia mercescens = experiment: as above; assay type: cell-based; details: [10] tested
[6] = test system: S. aureus UBMS 90-1 (tetM); experiment: MIC, agar dilution; assay type: cell-based; details: S. aureus UBMS 90-1 (tetM)
[7] = test system: S. aureus UBMS 88-4 (Sensitive); experiment: MIC, agar dilution; assay type: cell-based; details: Staphylococcus aureus, S. aureus UBMS 88-4 (Sensitive); read-out: MIC
Xanthomonas maltophilia = experiment: MIC vs recent clinical and agricultural isolates (Table V, KK); assay type: cell-based; details: [10] tested
[8] = test system: Escherichia coli (Clinical); experiment: as above; assay type: cell-based; details: [30] tested
S. aureus SMITH (sens) = experiment: In vivo antibacterial evaluation, acute lethal infection in mice; details: Staphylococcus aureus, read-out: ED50
Text: In Vivo Antibacterial Evaluation (Table VII)

[9] = test system: Escherichia coli (Agricultural); experiment: MIC vs recent clinical and agricultural isolates (Table V, KK); assay type: cell-based; details: [15] tested
Citrobacter diversus = experiment: as above; assay type: cell-based; details: [10] tested
[10] = test system: S. aureus Smith (Sensitive); experiment: MIC, agar dilution; assay type: cell-based; details: Staphylococcus aureus; S. aureus Smith (Sensitive); read-out: MIC
Streptococcus agalactiae = experiment: MIC vs recent clinical and agricultural isolates (Table V, KK); assay type: cell-based; details: [10] tested
[11] = test system: S. aureus UBMS 88-7 (tetK); experiment: MIC, agar dilution; assay type: cell-based; details: Staphylococcus aureus
Kiebsiella pneumoniae = experiment: MIC vs recent clinical and agricultural isolates (Table V, KK); assay type: cell-based; details: [10] tested
[12] = test system: Escherichia coli UBMS 90-4 (Tet-M); experiment: In vivo antibacterial evaluation, acute lethal infection in mice; details: Escherichia coli, in Mus musculus, iv
E. faecalis ATCC 29212 = experiment: MIC, agar dilution; assay type: cell-based; details: Enterococcus faecalis, ATCC29212; E. faecalis ATCC 29212; read-out: MIC
Enterobacter cloacae = experiment: MIC vs recent clinical and agricultural isolates (Table V, KK); assay type: cell-based; details: [10] tested
Clostridium difficile = experiment: as above; assay type: cell-based; details: [12] tested
[13] = test system: Pasturella multocida (Agricultural & Clinical); experiment: as above; assay type: cell-based; details: [17] tested
Enterobacter aerogenes = experiment: as above; assay type: cell-based; details: [10] tested
[14] = test system: Bordetella bronchiseptica (Agricultural); experiment: as above; assay type: cell-based; details: [10] tested
Proteus mirabilis = experiment: as above; assay type: cell-based; details: [26] tested
Bacteroides spp. = experiment: as above; assay type: cell-based; details: [9] tested
[15] = test system: Enterococcus spp. Vancomycin-resistant; experiment: as above; assay type: cell-based; details: [8] tested
[16] = test system: S. aureus ATCC 29213 (Sensitive); experiment: MIC, agar dilution; assay type: cell-based; details: Staphylococcus aureus, ATCC29213; S. aureus ATCC 29213 (Sensitive); read-out: MIC
Enterococcus faecium = experiment: MIC vs recent clinical and agricultural isolates (Table V, KK); assay type: cell-based; details: [10] tested
[17] = test system: S. aureus UBMS 90-3 (Sensitive); experiment: MIC, agar dilution; assay type: cell-based; details: Staphylococcus aureus, S. aureus UBMS 90-3 (Sensitive); read-out: MIC
Clostridium perfringens = assay type: cell-based; details: [16] tested

`CN(C)c1ccc(O)c2c1C[C@H]1C[C@H]3[C@H](N(C)C)C(O)=C(C(N)=O)C(=O)[C@@]3(O)C(O)=C1C2=O` [Compound O, 7-(Dimethylamino)-6-demethyl-6-deoxytetracycline hydrochloride (minocycline hydrochloride), reference compound] was tested, and the “MIC (range over isolates)” value (Listeria monocytogenes) was 0.015 to 0.03 µg/mL, the MIC (E. coli UBMS 90-4 (tetM)) was 64 µg/mL and the “MIC (range over isolates)” value (Citrobacter freundii) was 0.03 to 32 µg/mL. The MIC (E. coli UBMS 88-1 (tetB); hydrochloride) was 16 µg/mL, the MIC (E. coli UBMS 88-1 (tetB); Escherichia coli) was 8 µg/mL and the “MIC (range over isolates)” value [1] was 0.03 to 0.12 µg/mL. For the same compound, the “MIC (range over isolates)” value (Shigella spp.) was 0.25 to 8 µg/mL, the MIC ([2]; S. haemolyticus AVAH 88-3, hydrochloride) was 0.06 µg/mL and the MIC ([2]; Staphylococcus haemolyticus, AVAH883, S. haemolyticus AVAH 88-3, read-out: MIC) was 0.03 µg/mL. For the same compound, the “MIC (range over isolates)” value (Morganella morganii) was 0.25 to 32 µg/mL, the “MIC (range over isolates)” value [3] was under 0.008 to 4 µg/mL and the “MIC (range over isolates)” value (Moraxella catarrhalis) was 0.03 to 0.12 µg/mL. The “MIC (range over isolates)” value (Streptococcus pyogenes) was 0.03 to 2 µg/mL, the “MIC (range over isolates)” value (Neisseria gonorrhoeae) was 0.5 to 64 µg/mL and the MIC (E. coli UBMS 89-1 (tetM)) was 16 µg/mL. For the same compound, the “MIC (range over isolates)” value (Pseudomonas aeruginosa) was 1 to 16 µg/mL, the “MIC (range over isolates)” value (Klebsiella oxytoca) was 0.5 to 4 µg/mL and the “MIC (range over isolates)” value (Proteus vulgaris) was 0.5 to 16 µg/mL. For the same compound, the “MIC (range over isolates)” value (Anaerobic Gram (+) Cocci) was 0.05 to 8 µg/mL, the “MIC (range over isolates)” value (Streptococcus pneumoniae) was 0.06 to 0.5 µg/mL and the MIC ([4]; hydrochloride) was 1 µg/mL. The MIC ([4]; Staphylococcus aureus) was 2 µg/mL, the “MIC (range over isolates)” value [5] was 0.06 to 4 µg/mL and the “MIC (range over isolates)” value (Serratia mercescens) was 1 to 8 µg/mL. For the same compound, the MIC ([6]; hydrochloride) was 2 µg/mL, the MIC ([6]; Staphylococcus aureus) was 4 µg/mL and the MIC [7] was at most 0.015 µg/mL. The “MIC (range over isolates)” value (Xanthomonas maltophilia) was 0.12 to 1 µg/mL, the “MIC (range over isolates)” value [8] was 0.25 to 32 µg/mL and the ED50 (S. aureus SMITH (sens); Oral) was 0.74 mg/kg. For the same compound, the ED50 (S. aureus SMITH (sens); iv, Intraveneous) was 0.37 mg/kg, the “MIC (range over isolates)” value [9] was 1 to 16 µg/mL and the “MIC (range over isolates)” value (Citrobacter diversus) was 0.25 to 4 µg/mL. For the same compound, the MIC [10] was at most 0.015 µg/mL, the “MIC (range over isolates)” value (Streptococcus agalactiae) was 0.12 to 16 µg/mL and the MIC [11] was 0.06 µg/mL. For the same compound, the “MIC (range over isolates)” value (Kiebsiella pneumoniae) was 0.5 to 8 µg/mL, the ED50 [12] was over 32 mg/kg and the MIC (E. faecalis ATCC 29212) was 0.5 µg/mL. The “MIC (range over isolates)” value (Enterobacter cloacae) was 0.25 to 4 µg/mL, the “MIC (range over isolates)” value (Clostridium difficile) was 0.015 to 16 µg/mL and the “MIC (range over isolates)” value [13] was 0.015 to 4 µg/mL. The “MIC (range over isolates)” value (Enterobacter aerogenes) was 0.5 to 1 µg/mL, the “MIC (range over isolates)” value [14] was 0.06 to 0.12 µg/mL and the “MIC (range over isolates)” value (Proteus mirabilis) was 1 to 32 µg/mL. For the same compound, the “MIC (range over isolates)” value (Bacteroides spp.) was 0.03 to 16 µg/mL, the “MIC (range over isolates)” value [15] was 0.03 to 16 µg/mL and the MIC [16] was at most 0.015 µg/mL. The “MIC (range over isolates)” value (Enterococcus faecium) was 0.03 to 16 µg/mL, the MIC [17] was at most 0.015 µg/mL and the “MIC (range over isolates)” value (Clostridium perfringens) was over 0.008 to 16 µg/mL.
